# PubChem BioAssay (NCI)
#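 Step 1: Grow cells in 96-well plates. Step 2: Expose to compound for 48 hours at 5 concentrations. Step 3: Interpolate endpoints linearly; if unreached, use highest concentration. The concentration for 50% growth inhibition is given as GI50. The concentration for full growth arrest is given as TGI.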
# Columns and labels:
# Experiment in all cases: NCI-60 cell line screen, 48 h
# HS 578T breast = system: HS 578T breast
# MCF7 breast = system: MCF7 breast
# PC-3 prostate = system: PC-3 prostate
# MDA-MB-231 breast = system: MDA-MB-231 breast
# BT-549 breast = system: BT-549 breast
# DU-145 prostate = system: DU-145 prostate
# SR leukemia = system: SR leukemia
# DMS 114 small cell lung = system: DMS 114 small cell lung
# LXFL 529 NSCLC = system: LXFL 529 NSCLC
# DLD-1 colon = system: DLD-1 colon
# KM20L2 colon = system: KM20L2 colon
# SNB-78 CNS = system: SNB-78 CNS
# XF 498 CNS = system: XF 498 CNS
Structure (SMILES),TGI (HS 578T breast) [µM],TGI (MCF7 breast) [µM],TGI (PC-3 prostate) [µM],TGI (MDA-MB-231 breast) [µM],TGI (BT-549 breast) [µM],TGI (DU-145 prostate) [µM],TGI (SR leukemia) [µM],GI50 (MCF7 breast) [µM],GI50 (PC-3 prostate) [µM],GI50 (MDA-MB-231 breast) [µM],GI50 (BT-549 breast) [µM],GI50 (DU-145 prostate) [µM],GI50 (SR leukemia) [µM],TGI (DMS 114 small cell lung) [µM],TGI (LXFL 529 NSCLC) [µM],TGI (DLD-1 colon) [µM],TGI (KM20L2 colon) [µM],TGI (SNB-78 CNS) [µM],TGI (XF 498 CNS) [µM],GI50 (HS 578T breast) [µM]
CCCCCCCCCCCCO[P+](=O)OCCCCCCCCCCCC,> 100,> 100,> 100,> 100,> 100,> 100,–,–,–,–,–,–,–,–,–,–,–,–,–,–
NC(=O)Oc1ccccc1,> 100,> 100,> 100,> 100,–,> 100,> 100,–,–,–,–,–,–,–,–,–,–,–,–,–
C=C(C)[C@@H]1CC[C@]2(C(=O)NC(C)=O)CC[C@]3(C)[C@H](CC[C@@H]4[C@@]5(C)CCCNC(C)(C)[C@@H]5CC[C@]43C)[C@@H]12,–,3,3.5,3.29,3.28,2.94,3.07,1.41,1.59,1.82,1.68,1.57,0.839,–,–,–,–,–,–,–
CCOC(=O)Cn1c(=O)c(C)cn(COCCO)c1=O,> 100,> 100,> 100,> 100,> 100,> 100,–,–,–,–,–,–,–,–,–,–,–,–,–,–
O=C(CCC1CCCCN1)Nc1ccc2c(c1)C(=O)c1ccc(NC(=O)CCN3CCCCC3)cc1C2=O (centres undefined),–,–,–,–,–,–,> 100,–,–,–,–,–,–,2.97,2.7,6.37,14.5,> 100,–,–
CCN(CC)CCO[Si](OCCN(CC)CC)(OCCN(CC)CC)OCCN(CC)CC,–,–,–,–,–,–,> 100,–,–,–,–,–,–,> 100,–,> 100,> 100,–,> 100,–
CN/N=C(\C(=O)Nc1ccc(C)c(C)c1)C(C(=O)OC)c1nc2ccc([N+](=O)[O-])cc2[nH]c1=O (centres undefined),–,–,–,–,–,–,> 100,–,–,–,–,–,–,> 100,> 100,> 100,> 100,> 100,> 100,–
COC(=O)C1c2cc3c(c(O)c2C(O)CC1(C)O)C(=O)c1c(O)cc2c(c1C3=O)OC1OC2(C)C(O)C(N(C)C)C1O (centres undefined),7.21,2.63,2.43,2.64,17.7,3.44,> 100,–,–,–,–,–,–,> 100,> 100,> 100,> 100,> 100,> 100,–
COc1ccc(-c2n/c(=C\c3c(O)[nH]c4ccccc34)cc3c2=Nc2ccccc2-3)cc1,5.75,2.75,9.31,2.52,2.96,3.31,3.15,1.28,1.3,1.13,1.45,1.61,0.518,–,–,–,–,–,–,1.85
S=c1nc[nH]c2c1ncn2C1CCCO1 (centres undefined),–,–,–,–,–,–,–,–,–,–,–,–,–,> 100,> 100,> 100,> 100,–,–,–
CCOC(C)OC1CC(n2cc(C)c(=O)[nH]c2=O)OC1CO (centres undefined),–,–,–,–,–,–,> 100,–,–,–,–,–,–,> 100,> 100,> 100,> 100,> 100,> 100,–
CCOC(=O)C1=C(C)N(C2OC(COC(=O)c3ccccc3)C(OC(=O)c3ccccc3)C2OC(=O)c2ccccc2)C(=S)NC1c1ccccc1 (centres undefined),–,–,–,–,–,–,73.2,–,–,–,–,–,–,97.2,> 100,> 100,> 100,> 100,–,–
COc1ccc(C2=NC(c3ccc(Cl)cc3)C(c3ccc(Cl)cc3)N2C(=O)N2CCNC(=O)C2)c(OC(C)C)c1 (centres undefined),6.45,4.16,4.79,3.89,4.03,3.54,5.89,2.06,2.26,1.98,2.03,1.8,2.33,–,–,–,–,–,–,2.65
CN1CN(C(=O)N2CN(C)C(=O)N(C)C2)CN(C)C1=O,–,–,–,–,–,–,–,–,–,–,–,–,–,> 100,> 100,> 100,> 100,> 100,> 100,–
C(=C/c1nc2ccccc2o1)/c1ccc2c(c1)OCO2,–,> 79.8,–,–,–,–,–,–,–,–,–,–,–,> 100,–,> 100,> 53,90.6,48.8,–
CC1OC(=O)C(C(C)C)NC(=O)C(C(C)C)OC(=O)C(C(C)C)NC(=O)C(C)OC(=O)C(C(C)C)NC(=O)C(C(C)C)OC(=O)C(C(C)C)NC(=O)C(C)OC(=O)C(C(C)C)NC(=O)C(C(C)C)OC(=O)C(C(C)C)NC1=O (centres undefined),–,0.0686,–,–,–,–,–,–,–,–,–,–,–,0.0191,–,2.05,0.493,4.46,–,–
NS(=O)(=O)c1ccc(N=Nc2ccc(O)c(C(=O)O)c2)cc1,> 100,> 100,> 100,> 100,> 100,> 100,–,–,–,–,–,–,–,–,–,–,–,–,–,–
